Laboratory results taken from patent US11266655B2, “Methods and compositions for treating urea cycle disorders” (Camp4 Therapeutics Corporation, priority 2019, dated 2022).
pEC50, pKi: −log10 of the molar value. “Also recorded” adds a separate entry of the source.

Assays:
OTC [1] = assay: HSP90 or HSP70 inhibitors in primary human hepatocytes, OTC mRNA; type: cell-based; details: hepatocytes from Donor B, normalized to B2M
CPS1 [2] = assay: HSP90 or HSP70 inhibitors in primary human hepatocytes, CPS1 mRNA; type: cell-based; details: hepatocytes from Donor B, normalized to B2M
OTC [3] = assay: HSP90 inhibitor dose titration in hepatocytes of donors A and B, OTC mRNA normalized to B2M; type: cell-based, human; details: 18 hours
Protocol: (§1) Additional small molecules that inhibit HSP90 or HSP70 were tested in primary human hepatocytes as described in Example 2. HSP90 or HSP70 inhibitors were tested in triplicate at 0.3 μM and 3 μM. The results are shown as the fold change (mRNA FC) in the mRNA levels of OTC and CPS1 genes after treatment compared to an untreated control (DMSO) and the standard deviation (SD). In addition, a dose titration experiment was performed with selected HSP90 inhibitors. Hepatocytes were incubated with increasing concentrations of HSP90 inhibitors and the changes in OTC and CPS1 expression quantified as previously described.
(§2) Hepatocytes from two different donors (A and B) were incubated with the various concentrations of HSP90 inhibitors for 18 hours and harvested for mRNA analysis. OTC and CPS1 mRNA were normalized to house keeping gene B2M gene expression.

CPS1 [4] = assay: HSP90 inhibitor dose titration in hepatocytes of donors A and B, CPS1 mRNA normalized to B2M; type: cell-based, human; details: 18 hours
Protocol: as §1, §2

Hep3B cells = assay: Urea production in Hep3B cells, Blood Urea Nitrogen Assay Kit on spent media; type: cell-based, human; details: increasing concentrations from 0.03 μM
CPS1 [5] = assay: Urea cycle gene expression in Hep3B cells, CPS1; type: cell-based, human; details: FIG. 31B
ARG1 [6] = assay: Urea cycle gene expression in Hep3B cells, ARG1; type: cell-based, human; details: FIG. 31B
ASS1 [7] = assay: Urea cycle gene expression in Hep3B cells, ASS1; type: cell-based, human; details: FIG. 31B
NAGS [8] = assay: Urea cycle gene expression in Hep3B cells, NAGS; type: cell-based, human; details: FIG. 31B
HSP90 = details: cited from earlier work
[9] = test system: chromatin domain upstream of the OTC gene; assay: ATAC-seq of the OTC insulated neighborhood in inhibitor-treated hepatocytes; details: 17 hours of inhibitor treatment
Otc [10] = assay: EC144 in C57/B16 mice, liver Otc mRNA by qRT-PCR; type: in vivo, mouse
Protocol: (§3) The in vivo effect of EC144 was assessed.

Cps1 [11] = assay: EC144 in C57/B16 mice, liver Cps1 mRNA by qRT-PCR; type: in vivo, mouse
Protocol: as §3

Ass1 [12] = assay: EC144 in C57/B16 mice, liver Ass1 mRNA by qRT-PCR; type: in vivo, mouse; details: 5 mg/kg i.p. once daily for 4 days, FIG. 32
Protocol: as §3

[13] = EC144 in C57/B16 mice, liver As1 mRNA by qRT-PCR; type: in vivo, mouse; details: 5 mg/kg i.p. once daily for 4 days, FIG. 32
Protocol: as §3

Arg1 [14] = assay: EC144 in C57/B16 mice, liver Arg1 mRNA by qRT-PCR; type: in vivo, mouse; details: 5 mg/kg i.p. once daily for 4 days, FIG. 32
Protocol: as §3

[15] = EC144 in C57/B16 mice, serum urea levels (Blood Urea Nitrogen Assay Kit); type: in vivo, mouse; details: 5 mg/kg i.p. once daily for 4 days, 5 h, 7 h or 9 h post-dose, vs vehicle
Protocol: as §3
Serum urea levels were measured using the Blood Urea Nitrogen Assay Kit (Invitrogen, Cat #EIABUN) per manufacturer's instructions. The data was plotted in GraphPad and statistical significance of the data sets determined using the Holm-Sidak method for multiple comparisons (α=0.05).

Nags [16] = details: mice, 5 mg/kg i.p. once daily for 4 days, FIG. 32
OTC [17] = assay: JAK inhibitors at 0.3 and 3 μM in primary human hepatocytes, OTC mRNA fold change; type: cell-based; details: fold change vs DMSO
Protocol: (§4) Additional small molecules that inhibit JAK1, JAK2, JAK3, or a combination of the JAK proteins were tested in primary human hepatocytes as described in Example 2. JAK inhibitors were tested in triplicate at 0.3 μM and 3 μM. The results are shown as the fold change (mRNA FC) in the mRNA levels of OTC and CPS1 genes after treatment compared to an untreated control (DMSO) and the standard deviation (SD).

CPS1 [18] = assay: JAK inhibitors at 0.3 and 3 μM in primary human hepatocytes, CPS1 mRNA fold change; type: cell-based; details: fold change vs DMSO
Protocol: as §4

Cps1 [19] = assay: JAK1 inhibitors in C57/B16 mice, liver Cps1 mRNA by qRT-PCR; type: in vivo, mouse; details: i.p. once daily for 4 days, 6 hours after administration, vs control treated mice
Otc [20] = assay: JAK1 inhibitors in C57/B16 mice, liver Otc mRNA by qRT-PCR; type: in vivo, mouse; details: i.p. once daily for 4 days, 6 hours after administration, vs control treated mice
Socs1 = assay: JAK1 inhibitors in C57/B16 mice, Socs1 mRNA; type: in vivo, mouse; details: i.p. once daily for 4 days
OTC [21] = assay: siRNA knockdown of JAK/STAT/IRF genes in hepatocytes, OTC mRNA; type: cell-based, human; details: 10 nM siRNA plus 0.03 nM JAK1 siRNA, FIG. 27C
From the text: (§5) To confirm that JAK1 inhibition is necessary for OTC and CPS1 gene expression increase, JAK1, JAK2, and JAK3 expression was knocked down using the siRNA methods previously described in Example 1 (JAK1 siRNA Dharmacon #M-003145-02-0005; JAK2 siRNA Dharmacon #M-003146-02-0005; JAK3 siRNA Dharmacon #M-003147-01-0005). The cells were harvest for mRNA collection and quantification as previously described.
In addition, STAT5B is a JAK1 signal transducer and transcription factor activated by JAK1. STAT5B was knocked down in hepatocytes using siRNA (Dharmacon cat #M-010539-02-0005) as previously described in Example 1. The cells were harvest for mRNA collection and quantification as previously described.
(§6) To confirm the role of JAK1 and investigate the role of other signaling proteins and transcription factors in OTC and CPS1 expression, a panel of additional genes were knocked down with siRNA alone or in combination with JAK1. In particular, JAK2 was knockdown alone or in combination with JAK1. The combinations are shown in FIG. 26A and FIG. 26B. siRNA used to knock down JAK1 and JAK2 were: JAK1 siRNA Dharmacon #M-003145-02-0005; JAK2 siRNA Dharmacon #M-003146-02-0005. OTC and CPS1 mRNA expression was normalized to B2M. The assay was performed in triplicate in three donor hepatocyte cell lines: 371, 171, and 511A.
(§7) Cells were harvested after siRNA treatment for mRNA quantification. JAK1, OTC, and CPS1 mRNA levels were normalized to GUSB.

CPS1 [22] = assay: siRNA knockdown of JAK/STAT/IRF genes in hepatocytes, CPS1 mRNA; type: cell-based, human; details: 10 nM siRNA plus 0.03 nM JAK1 siRNA, FIG. 27D
From the text: as §5, §6, §7

OTC [23] = assay: JAK1 FANA ASO knockdown in primary human hepatocytes, OTC mRNA; type: cell-based; details: 10 uM FANA ASO, 5 days post-plating, vs scrambled control; listed as FANA (2′-deoxy-2′-fluoro-beta-D-arabinonucleic acid antisense) RNA
CPS1 [24] = assay: JAK1 FANA ASO knockdown in primary human hepatocytes, CPS1 mRNA; type: cell-based; details: 10 uM FANA ASO, 5 days post-plating, vs scrambled control; listed as FANA (2′-deoxy-2′-fluoro-beta-D-arabinonucleic acid antisense) RNA
OTC [25] = assay: CPS1 siRNA with or without JAK1 FANA ASO, OTC mRNA; type: cell-based, human; details: FIG. 24C, 24D
Protocol: (§8) Next, the link between CPS1 expression and OTC expression was investigated. siRNA targeting CPS1 was added to wells with media and the cells added to the wells (reverse transfection). The next day, the media was refreshed, and in some samples a FANA antisense oligonucleotide (ASO) directed to JAK1 was added to the wells. A scrambled ASO was used as a control for the treatment. After incubating with the JAK1 or scrambled ASO for 48 h, the cells were re-transfected with siRNA targeting CPS1 and incubated overnight (forward transfection) after which the media was refreshed. Cells were further incubated for 24 hours and harvested for analysis of the CPS1, OTC, and JAK1 mRNA expression levels. Similar methods were used to prepare cells with only the JAK1 FANA treatment and the CPS1 forward transfection, or only the CPS1 forward transfection. Scrambled RNA (NTC) was used as a control for CPS1 knockdown.

CPS1 [26] = assay: CPS1 siRNA with or without JAK1 FANA ASO, CPS1 mRNA; type: cell-based, human; details: FIG. 24A, 24B
Protocol: as §8

[27] = mice, 5 mg/kg i.p. once daily for 4 days, FIG. 32

Compound: COc1c(C)cnc(Cn2cnc3c(Cl)nc(N)nc32)c1C [BIIB021]
- OTC Expression mRNA FC (OTC [1]; 0.3 uM): 0.95
- OTC Expression mRNA FC (OTC [1]; 3 uM): 3.12
- CPS1 Expression mRNA FC (CPS1 [2]; 0.3 uM): 0.67
- CPS1 Expression mRNA FC (CPS1 [2]; 3 uM): 2.18
- OTC mRNA FC, Donor A (OTC [3]; 0.03 uM): 0.84
- OTC mRNA FC, Donor B (OTC [3]; 0.03 uM): 1.24
- OTC mRNA FC, Donor A (OTC [3]; 0.1 uM): 1.13
- OTC mRNA FC, Donor B (OTC [3]; 0.1 uM): 4.23
- OTC mRNA FC, Donor A (OTC [3]; 0.3 uM): 2.46
- OTC mRNA FC, Donor B (OTC [3]; 0.3 uM): 15.30
- OTC mRNA FC, Donor A (OTC [3]; 1 uM): 5.86
- OTC mRNA FC, Donor B (OTC [3]; 1 uM): 9.49
- OTC mRNA FC, Donor A (OTC [3]; 3 uM): 6.12
- OTC mRNA FC, Donor B (OTC [3]; 3 uM): 6.59
- OTC mRNA FC, Donor A (OTC [3]; 10 uM): 7.61
- OTC mRNA FC, Donor B (OTC [3]; 10 uM): 7.17
- CPS1 mRNA FC, Donor A (CPS1 [4]; 0.03 uM): 0.98
- CPS1 mRNA FC, Donor B (CPS1 [4]; 0.03 uM): 1.05
- CPS1 mRNA FC, Donor A (CPS1 [4]; 0.1 uM): 1.40
- CPS1 mRNA FC, Donor B (CPS1 [4]; 0.1 uM): 1.93
- CPS1 mRNA FC, Donor A (CPS1 [4]; 0.3 uM): 1.54
- CPS1 mRNA FC, Donor B (CPS1 [4]; 0.3 uM): 1.95
- CPS1 mRNA FC, Donor A (CPS1 [4]; 1 uM): 2.75
- CPS1 mRNA FC, Donor B (CPS1 [4]; 1 uM): 1.37
- CPS1 mRNA FC, Donor A (CPS1 [4]; 3 uM): 4.27
- CPS1 mRNA FC, Donor B (CPS1 [4]; 3 uM): 1.13
- CPS1 mRNA FC, Donor A (CPS1 [4]; 10 uM): 6.41
- CPS1 mRNA FC, Donor B (CPS1 [4]; 10 uM): 1.83
- urea production (Hep3B cells): dose-dependent increase; also recorded: increases
- CPS1 expression in Hep3B cells (CPS1 [5]): Increases
- ARG1 expression in Hep3B cells (ARG1 [6]): Increases
- ASS1 expression in Hep3B cells (ASS1 [7]): Increases
- NAGS expression in Hep3B cells (NAGS [8]): Increases
- accessibility of previously available chromatin upstream of the OTC gene (ATAC-seq) [9]: increase in accessibility
- newly accessible chromatin domain upstream of the OTC gene (ATAC-seq) [9]: newly accessible chromatin domain

Compound: COc1c(C)cnc(Cn2cc(C#CCC(C)(C)O)c3c(Cl)nc(N)nc32)c1C [EC144]
- Otc expression in vivo (Otc [10]; 5 h after administration, FIG. 33A): increased
- Otc expression in vivo (Otc [10]; [27]): increased
- Cps1 expression over time (Cps1 [11]; 9 h after administration as compared to 5 h): greater expression
- Cps1 expression in vivo (Cps1 [11]; at 5 h, 7 h, and 9 h after administration, FIG. 33B): increased
- Cps1 expression in vivo (Cps1 [11]; [27]): increased
- Ass1 expression in vivo (Ass1 [12]): increased
- As1 expression in vivo [13]: increased
- Arg1 expression in vivo (Arg1 [14]): increased
- serum urea levels [15]: increased
- Nags expression in vivo (Nags [16]): increased

Compound: C[C@@H]1CCN(C(=O)CC#N)C[C@@H]1N(C)c1ncnc2[nH]ccc12 [tofacitinib]
- OTC mRNA FC (OTC [17]; 0.3 uM): 3.2
- OTC mRNA FC (OTC [17]; 3 uM): 5.17
- CPS1 mRNA FC (CPS1 [18]; 0.3 uM): 1.67
- CPS1 mRNA FC (CPS1 [18]; 3 uM): 2.54
- Cps1 expression in liver (Cps1 [19]): increased
- Otc expression in liver (Otc [20]): increase
- Socs1 mRNA expression (Socs1): decreased

Compound: IRF9 (DNA AWCGAAACCGAAACY; target site or template, no part of the molecule; chemistry not given here)
- OTC expression after knockdown in combination with JAK1 (OTC [21]): increased
- CPS1 expression after knockdown in combination with JAK1 (CPS1 [22]): increased

Compound: JAK1 FANA: 2′-deoxy-2′-fluoro-beta-D-arabinonucleic acid antisense oligonucleotide to JAK1, sequence TTGTAGCTGATGTCCTTGGG (FANA (2'-fluoro-arabino) ASO, modification pattern and linkages not given here)
- OTC gene expression after JAK1 FANA ASO (OTC [23]): increased
- CPS1 gene expression after JAK1 FANA ASO (CPS1 [24]): increased
- OTC expression after CPS1 siRNA and/or JAK1 FANA (OTC [25]): increased
- CPS1 mRNA levels after CPS1 siRNA and/or JAK1 FANA (CPS1 [26]): increased
